PubChem BioAssay (NCI)
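Values below derive from 48-hour exposures of cells grown in 96-well plates, with endpoints linearly interpolated between the two concentrations bracketing the appropriate inhibition level. Here, GI50 denotes the concentration required for 50% inhibition of growth. TGI marks complete inhibition of growth.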

What was measured:
Experiment in all cases: NCI-60 cell line screen, 48 h
[1] = tested on: A549 NSCLC
[2] = tested on: HT29 colon
[3] = tested on: KM12 colon
[4] = tested on: M14 melanoma
[5] = tested on: OVCAR-3 ovarian
[6] = tested on: OVCAR-5 ovarian
[7] = tested on: SK-MEL-2 melanoma
[8] = tested on: SW-620 colon
[9] = tested on: NCI/ADR-RES ovarian
[10] = tested on: T-47D breast

| SMILES | TGI [1] | TGI [2] | TGI [3] | TGI [4] | TGI [5] | TGI [6] | TGI [7] | TGI [8] | GI50 [1] | GI50 [2] | GI50 [3] | GI50 [4] | GI50 [9] | TGI [9] | GI50 [5] | GI50 [6] | GI50 [7] | GI50 [8] | GI50 [10] | TGI [10] |
| --- | --- | --- | --- | --- | --- | --- | --- | --- | --- | --- | --- | --- | --- | --- | --- | --- | --- | --- | --- | --- |
| CC1SC2=NC3=C(c4ccccc4C3=O)C(c3ccc(Cl)cc3)N2C1=O (stereo not given) | > 100 µM | > 100 µM | > 100 µM | > 100 µM | > 100 µM | > 100 µM | > 100 µM | > 100 µM |  |  |  |  |  |  |  |  |  |  |  |  |
| CC1=NOC(=O)/C1=C/c1cccc2ccccc12 | > 100 µM | > 100 µM | > 100 µM | > 100 µM | > 100 µM | > 100 µM | > 100 µM | > 100 µM |  |  |  |  |  |  |  |  |  |  |  |  |
| O=C1Nc2c(C(F)(F)F)cccc2[C@@]1(c1ccc(O)cc1)c1ccc(OC(F)(F)F)cc1 | 0.0414 µM | 0.0435 µM | 3.28 µM | 14.1 µM | < 0.0171 µM | 16 µM | 0.0515 µM | 28.6 µM | 0.0186 µM | 0.0177 µM | < 0.0143 µM | 0.0537 µM | < 0.01 µM | < 0.0105 µM | < 0.01 µM | 0.0333 µM | 0.0194 µM | 14.1 µM |  |  |
| O=C1CCC2CC(C(=O)c3ccccc3)CCC2CN1 (stereo not given) (tested in a mixture with another compound) | > 100 µM | > 100 µM | > 100 µM | > 100 µM | > 100 µM | > 100 µM | > 100 µM | > 100 µM |  |  |  |  |  |  |  |  |  |  |  |  |
| NNC(=O)CNC(=O)c1ccc(Cl)cc1Cl | > 100 µM | > 100 µM | > 100 µM | > 100 µM | > 100 µM | > 100 µM |  | 33.3 µM |  |  |  |  |  |  |  |  |  |  |  |  |
| CC1C[C@H](C)CC(C(O)CC2CC(=O)N(Cc3ccccc3)C(=O)C2)C1O (stereo not given in full) | > 100 µM | > 100 µM | > 100 µM | > 100 µM | > 100 µM | > 100 µM |  | > 100 µM |  |  |  |  |  |  |  |  |  |  |  |  |
| O=C(c1ccccc1)[C@H]1Nc2ccc(Cl)cc2C2c3ccccc3CC21 (stereo not given in full) | > 100 µM | > 100 µM | > 100 µM | > 100 µM | 66.1 µM | > 100 µM | > 100 µM | > 100 µM |  |  |  |  |  |  |  |  |  |  |  |  |
| CC1(C)C(O)C[C@@H](O)[C@@]2(C)C1CC[C@]1(C)C2C[C@@H](O)[C@@H]2C([C@@]3(C)CC[C@@H](C(C)(C)O)O3)CCC21C (stereo not given in full) | 37 µM | 31.6 µM | 30.6 µM | 27.7 µM | 29.4 µM | 30.7 µM | 28.9 µM | 30.5 µM |  |  |  |  |  |  |  |  |  |  |  |  |
| C=C(C)[C@@H]1CC[C@]2(C(=O)O)CC[C@]3(C)[C@H](CC[C@@H]4[C@@]5(C)C[C@@H](CC#Cc6ccc(C(F)(F)F)cc6)[C@H](O)C(C)(C)[C@@H]5CC[C@]43C)[C@@H]12 |  | > 100 µM | > 100 µM |  |  |  | 4.58 µM |  |  | 3.01 µM | 2.78 µM |  | 47.3 µM | > 100 µM |  |  | 2.08 µM |  | 4.75 µM | > 100 µM |
| COc1ccc(C2CC(c3cc(C)ccc3O)=NC(N)=N2)cc1 (stereo not given) | > 100 µM | > 100 µM | > 100 µM | > 100 µM | > 100 µM | > 100 µM |  | > 100 µM |  |  |  |  |  |  |  |  |  |  |  |  |
| CC1COc2c(N3CCN(C)CC3)c(F)cc3c(=O)c(C(=O)O)cn1c23 (stereo not given) | > 100 µM | > 100 µM | > 100 µM | > 100 µM | > 100 µM | > 100 µM | > 100 µM | > 100 µM | > 100 µM | > 100 µM | > 100 µM | > 100 µM | > 100 µM | > 100 µM | > 100 µM | 84.4 µM | > 100 µM | > 100 µM |  |  |
| Cc1cc2c(cc1C)[n+](=O)c(C(=O)C/C(=N/OCCCc1ccccc1)C(=O)Nc1cc(Cl)ccc1Cl)c(C)n2[O-] | > 100 µM | > 100 µM | > 100 µM | > 100 µM | > 100 µM | > 100 µM | 86.2 µM | > 100 µM |  |  |  |  |  |  |  |  |  |  |  |  |
| Oc1ccc(O)c(-c2cn3ccsc3n2)c1 | 48.9 µM |  | 27.7 µM | 28.5 µM | 20.9 µM | 26.5 µM | > 100 µM | 19.1 µM | 22.9 µM |  | 12.5 µM | 15.2 µM | 12.9 µM | 25.5 µM | 7.4 µM | 12 µM | 50.4 µM | 7.1 µM | 19.7 µM | 40.6 µM |
| Cc1ccc(S(=O)(=O)N2CCSCCN(S(=O)(=O)c3ccc(C)cc3)CCN(S(=O)(=O)c3ccc(C)cc3)CC2)cc1 | > 100 µM | > 100 µM |  | > 100 µM | > 100 µM | > 100 µM | 79.9 µM | > 100 µM |  |  |  |  |  | > 100 µM |  |  |  |  |  | > 100 µM |
| N#Cc1c2c(c(N=P(c3ccccc3)(c3ccccc3)c3ccccc3)n3c1nc1ccccc13)CCCC2 | > 100 µM | 74.9 µM | > 100 µM | > 100 µM | 86.1 µM |  | 70.4 µM | > 100 µM |  |  |  |  |  |  |  |  |  |  |  |  |
| CC1CC(=O)Nc2ccccc2N1C(=O)CN1CCC(CCCCN(C)C)CC1 (stereo not given) | > 100 µM | > 100 µM | > 100 µM | > 100 µM | > 100 µM | > 100 µM | > 100 µM | > 100 µM |  |  |  |  |  |  |  |  |  |  |  |  |
| CC[P+](C)(C)c1ccccc1 | > 100 µM | > 100 µM | > 100 µM | > 100 µM | > 100 µM | > 100 µM | > 100 µM | > 100 µM |  |  |  |  |  |  |  |  |  |  |  |  |
| CCCCCCCCOCC(O)COC(=O)CCCCCCC (stereo not given) | > 100 µM | > 100 µM |  | > 100 µM | 64.8 µM | > 100 µM |  | > 100 µM |  |  |  |  |  |  |  |  |  |  |  |  |
| NC(N)=N/N=C/c1c(-c2cc(Cl)sc2Cl)nc2sccn12 | 11.3 µM |  | 2.75 µM | > 50 µM | 3.4 µM | 2.05 µM | > 50 µM | 2.43 µM | 2.17 µM |  | 1.04 µM | > 50 µM | 7.71 µM | 15.4 µM | 1.27 µM | 0.956 µM | 2.72 µM | 1 µM |  |  |
| C/C(=C\CCc1ccoc1)CC/C=C(\C)CCCN1CCOCC1 | 23.2 µM |  | 16.1 µM | 3.42 µM | 15.3 µM | 21.3 µM | 25.9 µM | 14.6 µM | 9.08 µM |  | 4.11 µM | 1.65 µM | 12.3 µM | 27.5 µM | 3.73 µM | 7.17 µM | 12.2 µM | 3.43 µM | 3.62 µM | 13.1 µM |
